This experiment concerns the target T1, N-lysine methyltransferase KMT5A (Homo sapiens, UniProt Q9NQR1).
T1 sequence (Q9NQR1 whole entry): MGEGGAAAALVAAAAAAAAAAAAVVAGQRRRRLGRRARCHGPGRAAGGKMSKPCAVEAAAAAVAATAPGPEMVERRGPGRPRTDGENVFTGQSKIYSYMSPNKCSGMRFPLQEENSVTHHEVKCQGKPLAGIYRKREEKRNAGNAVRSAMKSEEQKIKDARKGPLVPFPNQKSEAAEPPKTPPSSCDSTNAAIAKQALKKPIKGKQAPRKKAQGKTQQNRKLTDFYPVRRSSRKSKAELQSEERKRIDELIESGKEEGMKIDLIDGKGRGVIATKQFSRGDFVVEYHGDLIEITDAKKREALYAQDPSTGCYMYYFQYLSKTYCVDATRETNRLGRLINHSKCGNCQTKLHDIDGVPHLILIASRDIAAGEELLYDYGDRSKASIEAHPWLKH
The experiment in a line: Inhibition of SETD8 in HEK293T cells assessed as reduction in H4K20me level after 2 to 3 days by Western blot analysis. In kind it is cell-based.

Some results are limits rather than exact numbers.

Broadly, the EC50 is the midpoint of the concentration-response curve.

As to `Cc1ccc(/N=C2\CC(=O)c3sc(C)nc3C2=O)cc1`, the EC50 is below 1 µM. Then `CC1(C)C(=O)N=C2C1=C(O)C(=O)c1ccccc12`, with below 5 µM; and `O=C1C(Cl)=C(NCCN2CCOCC2)C(=O)c2ncccc21`, with below 5 µM.

The record behind these values is ChEMBL document CHEMBL4477270, “Design, synthesis, and protein methyltransferase activity of a unique set of constrained amine containing compounds” (Bioorg Med Chem Lett, 2016).
